The values that follow come from US8802633B1, “Autophagy-inducing peptide analogs” (Board of Regents, The University of Texas System, priority 2013, dated 2014).

No end group written: not given here.

Test [1] concerns p62. As to the kind of experiment: western blot detection of p62 (a protein degraded by autophagy). It is filed as cell-based. Conditions: 10 micomolar peptide, compared to 10 micomolar Tat-Beclin 1 compound. Here is the method: (§1) To further assess the components of the beclin1 peptide required for autophagy-inducing activity, a series of shorter peptides were developed. Activity was measured by biochemical autophagy assays including western blot detection of p62 (a protein degraded by autophagy) and western blot detection of the conversion of LC3-I into LC3-II (the lipidated autophagosome-associated form of LC3).
On the technique in general: In western blotting, separated proteins are transferred to a membrane and probed.

In test [2] the test system is LC3. Put plainly: western blot detection of the conversion of LC3-I into LC3-II. The class given is cell-based. The settings on record: 10 micomolar peptide, compared to 10 micomolar Tat-Beclin 1 compound. Here is the method: as §1

As to “Tat-GG-VFNATFEIWHD (Tat-GGVFNATFEIWHD) [tat protein transduction domain linked through a diglycine linker to Beclin 1 residues 269-279 with H275E and S279D]”, in test [1], the p62 degradation entry was “increased p62 degradation”. In addition, in test [2], the LC3-II conversion result is “increased LC3-II conversion”.
